System: HeLa cells
Test: Confocal fluorescence imaging of HDAC activity in HeLa cells
Assay type: cell-based
Details: 5 μM probe, 2 hours
Protocol: Imaging HDAC activity in HeLa cells with HP-1 and 2. An acid-washed, poly-lysine-treated sterile glass cover slip was added to each well of 6-well plate, and HeLa cells were plated at a seeding density of ˜2.5×10^5 cells/mL in 2 mL of growth medium. After 24 hours, the cells reached 80-85% confluence. For all experiments, solutions of HP-1 and HP-2 (200 mM each) were prepared in DMSO and diluted in HDAC buffer to a final concentration of 100 μM. SAHA solutions (100 mM) were prepared in DMSO and diluted in HDAC buffer to make a 100 μM solution. All solutions were prepared immediately prior to application to the cells. […]
Confocal fluorescence image acquisition and analysis. Confocal fluorescence imaging was performed with a Zeiss laser scanning microscope 710 with a 63× objective lens and Zen 2009 software (Carl Zeiss). […] The mean fluorescence intensity of 10 cells per coverslip was measured using ImageJ software. […] The mean background signal was also measured and subtracted from the mean fluorescence signal within the cells. Mean fluorescence intensities and standard deviations were plotted in Microsoft Excel.
Imaging HDAC activity in HeLa cells with HP-1 and 2. […] Cover slips were mounted on a drop of Gel Mount (anti-fade with DAPI nuclear stain) and analyzed by confocal imaging.
Confocal fluorescence imaging. […]

Structure (SMILES): CC(=O)NC=CCCCCNC(=O)CCCCCNc1ccc([N+](=O)[O-])c2nonc12 [HP-1]
- intracellular NBD fluorescence (10 μM SAHA added 15 min prior): reduces the level of fluorescence
- intracellular NBD fluorescence (absence of SAHA): robust intracellular fluorescent signal

From patent publication US20160138077A1, “MONITORING AND ASSESSING DEACETYLASE ENZYME ACTIVITY” (THE GENERAL HOSPITAL CORPORATION, priority 2013, published 2016)
